# System: MV-411 cells
# Test: Anti-proliferative activity against MV-411 leukemia cells (CellTiterGlo viability, 72 h)
# Assay type: cell-based
# Conditions: Homo sapiens, MV4-11, 72 h, MV-411 human acute monocytic leukemia cells, a second value in parentheses is a further determination
# Experimental: Procedure: MV-411 cells were seeded into 384 well plates at 2000 cells/well density in 50 μL total volume, according to plate map and were allowed to naturally sediment by waiting about 30 min on a Clean Bench. Next, plated cells were centrifuged for 1 min at 1000 rpm and the excess cells were transferred into the flasks for further culture. Cells in the assay plates were incubated (at least 4 hrs.) at 37° C., 5% CO2 followed by adding the compounds as the plate map indicated. The tests were performed in duplicates with treatment of compounds at 10 pts 3-fold titration in 384 well plates. Taxol was used as positive control while DMSO as negative control. To rule out edge effect, the wells on the edge were not seeded and therefore one 384 well plate holds 13 compounds. Cells viability was measured 72h after incubation with compounds using CellTiterGlo (promega) viability assay according to manufacturer's instruction to check the ATP production in each well.
# Experiments on anti-proliferative activity against leukemia cells were conducted with some of the compounds of the invention.
row,SMILES,GI50
1,C[C@@H]1CN(c2ccc(-n3cc(C(=O)NCCCN4CCOCC4)nn3)cc2NC(=O)c2cnc(Cl)cc2C(F)(F)F)C[C@H](C)N1C [Compound 1],1.38 µM
2,C[C@@H]1CN(c2ccc(-n3cc(C(=O)NCCCN4CCOCC4)nn3)cc2NC(=O)c2c[nH]c(=O)cc2C(F)(F)F)C[C@H](C)N1C [Compound 2],> 200 µM
3,CN1CCN(c2ccc(-n3cc(C(=O)NCCCN4CCOCC4)nn3)cc2NC(=O)c2c[nH]c(=O)cc2C(F)(F)F)CC1 [Compound 4],> 200 µM
4,C[C@@H]1CN(c2cc(F)c(-n3cc(C(=O)NCCCN4CCOCC4)nn3)cc2NC(=O)c2cnc(Cl)cc2C(F)(F)F)C[C@H](C)N1C [Compound 5],7.26 µM
5,C[C@@H]1CN(c2cc(F)c(-n3cc(C(=O)NCCCN4CCOCC4)nn3)cc2NC(=O)c2c[nH]c(=O)cc2C(F)(F)F)C[C@H](C)N1C [Compound 6],> 200 µM
6,CN1CCN(c2cc(F)c(-n3cc(C(=O)NCCCN4CCOCC4)nn3)cc2NC(=O)c2c[nH]c(=O)cc2C(F)(F)F)CC1 [Compound 8],> 200 µM
7,C[C@H]1CN(c2ccc(-n3cc(C(=O)NCCCN4CCOCC4)nn3)cc2NC(=O)c2c[nH]c(=O)cc2C(F)(F)F)CCN1C [Compound 10],> 200 µM
8,CN1CCN(c2ccc(-n3cc(C(=O)NCCCN4CCOCC4)nn3)cc2NC(=O)c2cnc(F)cc2C(F)(F)F)CC1 [Compound 11],2.14 µM
9,Cc1cc(C(F)(F)F)c(C(=O)Nc2cc(-n3cc(C(=O)NCCCN4CCOCC4)nn3)ccc2N2CCN(C)CC2)cn1 [Compound 12],60.1 µM
10,CN1CCN(c2ccc(-n3cc(C(=O)NCCCN4CCOCC4)nn3)cc2NC(=O)c2cnc(C#N)cc2C(F)(F)F)CC1 [Compound 13],21.8 µM
11,CSc1cc(C(F)(F)F)c(C(=O)Nc2cc(-n3cc(C(=O)NCCCN4CCOCC4)nn3)ccc2N2CCN(C)CC2)cn1 [Compound 14],25.3 µM
12,CN1CCN(c2ccc(-n3cc(C(=O)NCCCN4CCOCC4)nn3)cc2NC(=O)c2cnc(S(C)(=O)=O)cc2C(F)(F)F)CC1 [Compound 15],> 237 µM
13,COc1cc(C(F)(F)F)c(C(=O)Nc2cc(-n3cc(C(=O)NCCCN4CCOCC4)nn3)ccc2N2CCN(C)CC2)cn1 [Compound 16],51.9 µM
14,CN1CCN(c2ccc(-n3cc(C(=O)NCCCN4CCOCC4)nn3)cc2NC(=O)c2cnc(N)cc2C(F)(F)F)CC1 [Compound 18],42.7 µM
15,CN1CCN(c2ccc(-n3cc(C(=O)NCCCN4CCOCC4)nn3)cc2NC(=O)c2cnc(Cl)cc2Cl)CC1 [Compound 19],0.91 µM
16,CN1CCN(c2ccc(-n3cc(C(=O)NCCCN4CCOCC4)nn3)cc2NC(=O)c2cnc(C(F)(F)F)cc2Cl)CC1 [Compound 20],2.86 µM
17,Cc1c(Cl)ncc(C(=O)Nc2cc(-n3cc(C(=O)NCCCN4CCOCC4)nn3)ccc2N2CCN(C)CC2)c1Cl [Compound 21],2.5 µM
18,CN1CCN(c2ccc(-n3cc(C(=O)NCCCN4CCOCC4)nn3)cc2NC(=O)c2cnc(C(F)F)cc2Cl)CC1 [Compound 22],39.7 µM
19,CN1CCN(c2ccc(-n3cc(C(=O)NCCCN4CCOCC4)nn3)cc2NC(=O)c2cnc(C#N)cc2N(C)C)CC1 [Compound 23],196 µM
20,Cc1cc(N)ncc1C(=O)Nc1cc(-n2cc(C(=O)NCCCN3CCOCC3)nn2)ccc1N1CCN(C)CC1 [Compound 24],> 200 µM
21,Cc1cc(F)ncc1C(=O)Nc1cc(-n2cc(C(=O)NCCCN3CCOCC3)nn2)ccc1N1CCN(C)CC1 [Compound 25],146 µM
22,Cc1ncc(C(=O)Nc2cc(-n3cc(C(=O)NCCCN4CCOCC4)nn3)ccc2N2CCN(C)CC2)c(C(F)(F)F)n1 [Compound 26],75.2 µM
23,CSc1ncc(C(=O)Nc2cc(-n3cc(C(=O)NCCCN4CCOCC4)nn3)ccc2N2CCN(C)CC2)c(C(F)(F)F)n1 [Compound 27],18.5 µM
24,CN1CCN(c2ccc(-n3cc(C(=O)NCCCN4CCOCC4)nn3)cc2NC(=O)c2cnc([S+](C)[O-])nc2C(F)(F)F)CC1 (stereo not shown) [Compound 28],> 200 µM
25,CCOc1ncc(C(=O)Nc2cc(-n3cc(C(=O)NCCCN4CCOCC4)nn3)ccc2N2CCN(C)CC2)c(C(F)(F)F)n1 [Compound 29],18.4 µM
26,COc1nc(SC)ncc1C(=O)Nc1cc(-n2cc(C(=O)NCCCN3CCOCC3)nn2)ccc1N1CCN(C)CC1 [Compound 30],12.2 µM

row,SMILES,GI50
1,Cc1nc(C(F)(F)F)ncc1C(=O)Nc1cc(-n2cc(C(=O)NCCCN3CCOCC3)nn2)ccc1N1CCN(C)CC1 [Compound 31],106 µM
2,CN1CCN(c2ccc(-n3cc(C(=O)NCCCN4CCOCC4)nn3)cc2NC(=O)c2nnc(Cl)cc2Cl)CC1 [Compound 32],1.24 µM
3,CN1CCN(c2ccc(-n3cc(C(=O)NCCCN4CCOCC4)nn3)cc2NC(=O)c2nnc(Cl)cc2N)CC1 [Compound 33],35.3 µM
4,CN1CCN(c2ccc(-n3cc(C(=O)NCCCN4CCOCC4)nn3)cc2NC(=O)c2ncc(Cl)nc2Cl)CC1 [Compound 34],0.37 µM
5,COc1cnc(C(=O)Nc2cc(-n3cc(C(=O)NCCCN4CCOCC4)nn3)ccc2N2CCN(C)CC2)c(Cl)n1 [Compound 35],2.42 µM
6,COc1cnc(C(=O)Nc2cc(-n3cc(C(=O)NCCCN4CCOCC4)nn3)ccc2N2CCN(C)CC2)c(OC)n1 [Compound 36],28.2 µM
7,CN1CCN(c2ccc(-n3cc(C(=O)NCCCN4CCOCC4)nn3)cc2NC(=O)c2ccc(Cl)nc2C(F)(F)F)CC1 [Compound 37],44.3 µM
8,COc1ccc(C(=O)Nc2cc(-n3cc(C(=O)NCCCN4CCOCC4)nn3)ccc2N2CCN(C)CC2)c(C(F)(F)F)n1 [Compound 38],67.9 µM
9,CN1CCN(c2ccc(-n3cc(C(=O)NCCCN4CCOCC4)nn3)cc2NC(=O)c2ccc(C#N)nc2C(F)(F)F)CC1 [Compound 39],20.2 µM
10,CN1CCN(c2ccc(-n3cc(C(=O)NCCCN4CCOCC4)nn3)cc2NC(=O)c2ccc(C(N)=O)nc2C(F)(F)F)CC1 [Compound 40],> 200 µM
11,CN1CCN(c2ccc(-n3cc(C(=O)NCCCN4CCOCC4)nn3)cc2NC(=O)c2ccc(N)nc2C(F)(F)F)CC1 [Compound 41],108 µM
12,COc1ccc(CNc2ccc(C(=O)Nc3cc(-n4cc(C(=O)NCCCN5CCOCC5)nn4)ccc3N3CCN(C)CC3)c(C(F)(F)F)n2)cc1 [Compound 42],3.17 µM
13,CSc1ccc(C(=O)Nc2cc(-n3cc(C(=O)NCCCN4CCOCC4)nn3)ccc2N2CCN(C)CC2)c(C(F)(F)F)n1 [Compound 43],19.9 µM
14,CN1CCN(c2ccc(-n3cc(C(=O)NCCCN4CCOCC4)nn3)cc2NC(=O)c2ccc(S(C)(=O)=O)nc2C(F)(F)F)CC1 [Compound 44],49.9 µM
15,CN1CCN(c2ccc(-n3cc(C(=O)NCCCN4CCOCC4)nn3)cc2NC(=O)c2ncc(N)cn2)CC1 [Compound 45],11.2 µM
16,CN1CCN(c2ccc(-n3cc(C(=O)NCCCN4CCOCC4)nn3)cc2NC(=O)c2ccc(Cl)cc2C(F)(F)F)CC1 [Compound 46],22.4 µM
17,Cc1cc(Cl)c(C(=O)Nc2cc(-n3cc(C(=O)NCCCN4CCOCC4)nn3)ccc2N2CCN(C)CC2)cc1N [Compound 49],27.7 µM
18,CCN(CC)C(=O)c1cn(-c2cc(NC(=O)c3cnc(Cl)cc3C(F)(F)F)c(N3C[C@@H](C)N(C)[C@@H](C)C3)cc2F)nn1 [Compound 50],0.49 µM
19,C[C@@H]1CN(c2cc(F)c(-n3cc(C(=O)N4CCN(C)CC4)nn3)cc2NC(=O)c2cnc(Cl)cc2C(F)(F)F)C[C@H](C)N1C [Compound 51],1.14 µM
20,C[C@@H]1CN(c2cc(F)c(-n3cc(C(=O)NC4CCN(C)CC4)nn3)cc2NC(=O)c2cnc(Cl)cc2C(F)(F)F)C[C@H](C)N1C [Compound 52],1.22 µM
21,CCN(CC)C(=O)c1cn(-c2cc(NC(=O)c3cnc(F)cc3C(F)(F)F)c(N3C[C@@H](C)N(C)[C@@H](C)C3)cc2F)nn1 [Compound 53],0.9 µM
22,COc1cc(C(F)(F)F)c(C(=O)Nc2cc(-n3cc(C(=O)NC4CCN(C)CC4)nn3)c(F)cc2N2C[C@@H](C)N(C)[C@@H](C)C2)cn1 [Compound 54],14.3 µM
23,COc1cc(C(F)(F)F)c(C(=O)Nc2cc(-n3cc(C(=O)NCCCN4CCOCC4)nn3)c(F)cc2N2C[C@@H](C)N(C)[C@@H](C)C2)cn1 [Compound 55],27.8 µM
24,CCN(CC)C(=O)c1cn(-c2cc(NC(=O)c3cnc(Cl)cc3Cl)c(N3C[C@@H](C)N(C)[C@@H](C)C3)cc2F)nn1 [Compound 56],1.17 µM
25,C[C@@H]1CN(c2cc(F)c(-n3cc(C(=O)N4CCN(C)CC4)nn3)cc2NC(=O)c2cnc(Cl)cc2Cl)C[C@H](C)N1C [Compound 57],0.74 µM
26,C[C@@H]1CN(c2cc(F)c(-n3cc(C(=O)NC4CCN(C)CC4)nn3)cc2NC(=O)c2cnc(C(F)(F)F)cc2Cl)C[C@H](C)N1C [Compound 58],0.68 µM

# Same assay, conditions: MV-411 human acute monocytic leukemia cells, a second value in parentheses is a further determination
row,SMILES,GI50
1,CN1CCN(c2ccc(-n3cc(C(=O)NCCCN4CCOCC4)nn3)cc2NC(=O)c2cnc(F)cc2C(F)(F)F)CC1 [Compound 11],2.01 µM
2,Cc1cc(C(F)(F)F)c(C(=O)Nc2cc(-n3cc(C(=O)NCCCN4CCOCC4)nn3)ccc2N2CCN(C)CC2)cn1 [Compound 12],88.8 µM
3,CN1CCN(c2ccc(-n3cc(C(=O)NCCCN4CCOCC4)nn3)cc2NC(=O)c2cnc(C#N)cc2C(F)(F)F)CC1 [Compound 13],23.7 µM
4,CSc1cc(C(F)(F)F)c(C(=O)Nc2cc(-n3cc(C(=O)NCCCN4CCOCC4)nn3)ccc2N2CCN(C)CC2)cn1 [Compound 14],21.4 µM
5,CN1CCN(c2ccc(-n3cc(C(=O)NCCCN4CCOCC4)nn3)cc2NC(=O)c2cnc(Cl)cc2Cl)CC1 [Compound 19],0.94 µM
6,CN1CCN(c2ccc(-n3cc(C(=O)NCCCN4CCOCC4)nn3)cc2NC(=O)c2cnc(C(F)(F)F)cc2Cl)CC1 [Compound 20],3.19 µM
7,Cc1c(Cl)ncc(C(=O)Nc2cc(-n3cc(C(=O)NCCCN4CCOCC4)nn3)ccc2N2CCN(C)CC2)c1Cl [Compound 21],2.33 µM
8,Cc1ncc(C(=O)Nc2cc(-n3cc(C(=O)NCCCN4CCOCC4)nn3)ccc2N2CCN(C)CC2)c(C(F)(F)F)n1 [Compound 26],61.7 µM
9,CN1CCN(c2ccc(-n3cc(C(=O)NCCCN4CCOCC4)nn3)cc2NC(=O)c2ccc(Cl)nc2C(F)(F)F)CC1 [Compound 37],46.2 µM

# Reference: US20230286948A1 (HUYABIO International, LLC, priority 2022, published 2023)
